Usually ΔTm stands for the shift of the melting midpoint relative to a reference. Usually IC50 stands for the midpoint of a concentration-inhibition curve. In general, Kd refers to the equilibrium constant for the complex coming apart. A higher Kd goes with weaker binding.

The structures appear in SMILES notation. Peptide text beside a SMILES is read from it. Where only a bound is given, the exact number is not on record here.

For assay [1], the target named is T1, CREB-binding protein (Homo sapiens, UniProt Q92793). As to the kind of experiment: Binding affinity to human CREBBP at 100 uM by thermal shift assay.
Target sequence in this assay (Q92793 2-2442 limits assumed): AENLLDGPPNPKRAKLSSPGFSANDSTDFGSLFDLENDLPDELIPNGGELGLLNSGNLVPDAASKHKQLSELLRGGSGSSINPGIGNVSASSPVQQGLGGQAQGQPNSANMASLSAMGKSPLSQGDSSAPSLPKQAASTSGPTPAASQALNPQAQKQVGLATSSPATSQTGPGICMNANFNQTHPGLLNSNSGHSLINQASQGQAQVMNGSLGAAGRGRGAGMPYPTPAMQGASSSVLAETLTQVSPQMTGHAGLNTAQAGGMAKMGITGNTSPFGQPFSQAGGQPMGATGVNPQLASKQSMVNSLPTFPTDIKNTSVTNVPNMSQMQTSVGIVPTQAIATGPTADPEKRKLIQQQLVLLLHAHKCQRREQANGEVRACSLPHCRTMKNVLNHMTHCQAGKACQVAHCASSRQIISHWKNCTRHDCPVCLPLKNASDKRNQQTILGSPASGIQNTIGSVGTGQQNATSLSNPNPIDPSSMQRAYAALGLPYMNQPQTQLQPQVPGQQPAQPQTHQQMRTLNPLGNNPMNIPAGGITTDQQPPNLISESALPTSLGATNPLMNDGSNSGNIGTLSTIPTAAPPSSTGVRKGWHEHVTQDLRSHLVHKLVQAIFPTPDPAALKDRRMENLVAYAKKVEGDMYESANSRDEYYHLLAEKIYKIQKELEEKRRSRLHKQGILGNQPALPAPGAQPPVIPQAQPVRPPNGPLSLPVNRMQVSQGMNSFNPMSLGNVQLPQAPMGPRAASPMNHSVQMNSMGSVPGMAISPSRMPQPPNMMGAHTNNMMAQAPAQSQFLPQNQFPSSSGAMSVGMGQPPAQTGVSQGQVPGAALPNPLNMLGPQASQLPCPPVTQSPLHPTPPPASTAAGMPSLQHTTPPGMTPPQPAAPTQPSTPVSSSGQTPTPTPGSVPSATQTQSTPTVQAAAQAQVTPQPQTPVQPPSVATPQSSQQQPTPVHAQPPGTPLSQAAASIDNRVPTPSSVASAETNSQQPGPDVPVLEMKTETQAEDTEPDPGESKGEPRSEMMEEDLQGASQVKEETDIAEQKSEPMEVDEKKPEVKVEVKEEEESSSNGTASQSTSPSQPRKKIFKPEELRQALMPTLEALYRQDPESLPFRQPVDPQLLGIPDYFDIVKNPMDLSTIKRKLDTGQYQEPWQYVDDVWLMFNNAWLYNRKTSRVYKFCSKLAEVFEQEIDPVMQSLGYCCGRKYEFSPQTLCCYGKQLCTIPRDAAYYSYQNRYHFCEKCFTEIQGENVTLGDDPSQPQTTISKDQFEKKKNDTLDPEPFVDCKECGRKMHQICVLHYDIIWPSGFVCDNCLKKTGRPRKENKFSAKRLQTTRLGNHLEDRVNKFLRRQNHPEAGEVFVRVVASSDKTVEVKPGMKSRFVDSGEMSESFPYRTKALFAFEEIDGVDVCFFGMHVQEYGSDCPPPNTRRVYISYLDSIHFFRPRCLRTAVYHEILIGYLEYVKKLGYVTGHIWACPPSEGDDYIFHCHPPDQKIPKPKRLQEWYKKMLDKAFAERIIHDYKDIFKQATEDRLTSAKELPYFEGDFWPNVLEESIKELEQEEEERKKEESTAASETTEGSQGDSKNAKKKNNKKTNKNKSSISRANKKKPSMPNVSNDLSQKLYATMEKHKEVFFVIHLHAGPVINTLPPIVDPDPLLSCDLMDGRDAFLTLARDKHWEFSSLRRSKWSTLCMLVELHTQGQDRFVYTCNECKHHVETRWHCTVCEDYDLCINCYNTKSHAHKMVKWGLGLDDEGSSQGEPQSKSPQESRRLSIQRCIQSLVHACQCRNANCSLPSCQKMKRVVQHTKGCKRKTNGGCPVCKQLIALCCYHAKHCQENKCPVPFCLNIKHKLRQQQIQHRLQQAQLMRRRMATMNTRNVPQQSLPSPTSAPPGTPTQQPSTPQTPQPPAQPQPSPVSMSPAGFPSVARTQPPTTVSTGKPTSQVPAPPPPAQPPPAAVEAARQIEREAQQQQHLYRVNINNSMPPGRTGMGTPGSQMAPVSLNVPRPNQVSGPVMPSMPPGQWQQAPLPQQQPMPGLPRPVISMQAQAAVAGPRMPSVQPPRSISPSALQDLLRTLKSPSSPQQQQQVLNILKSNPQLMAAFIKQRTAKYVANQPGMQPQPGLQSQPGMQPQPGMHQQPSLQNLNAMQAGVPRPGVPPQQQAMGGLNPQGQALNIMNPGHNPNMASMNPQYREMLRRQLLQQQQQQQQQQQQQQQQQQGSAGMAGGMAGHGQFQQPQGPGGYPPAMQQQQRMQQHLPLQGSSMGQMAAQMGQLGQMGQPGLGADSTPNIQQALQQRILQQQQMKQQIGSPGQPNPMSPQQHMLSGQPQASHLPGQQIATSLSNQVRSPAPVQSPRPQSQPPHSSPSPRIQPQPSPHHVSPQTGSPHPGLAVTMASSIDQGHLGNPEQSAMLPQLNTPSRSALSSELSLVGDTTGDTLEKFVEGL
The target in assay [2] is T1, CREB-binding protein. As to the kind of experiment: Competitive binding affinity to partial length human CREBBP expressed in Escherichia coli BL21 at 50 uM after 1 hr by BROMOscan assay relative to control.
Target sequence in this assay (Q92793 2-2442 limits assumed): as above
Assay [3] addresses T1, CREB-binding protein. The assay can be described thus: Binding affinity to N-terminal GST-tagged recombinant human CREBBP expressed in Escherichia coli after 2 hrs using BET bromodomain ligand by TR-FRET assay. (TR-FRET usually uses a lanthanide donor and a delayed reading to cut background.)
Target sequence in this assay (Q92793 whole entry): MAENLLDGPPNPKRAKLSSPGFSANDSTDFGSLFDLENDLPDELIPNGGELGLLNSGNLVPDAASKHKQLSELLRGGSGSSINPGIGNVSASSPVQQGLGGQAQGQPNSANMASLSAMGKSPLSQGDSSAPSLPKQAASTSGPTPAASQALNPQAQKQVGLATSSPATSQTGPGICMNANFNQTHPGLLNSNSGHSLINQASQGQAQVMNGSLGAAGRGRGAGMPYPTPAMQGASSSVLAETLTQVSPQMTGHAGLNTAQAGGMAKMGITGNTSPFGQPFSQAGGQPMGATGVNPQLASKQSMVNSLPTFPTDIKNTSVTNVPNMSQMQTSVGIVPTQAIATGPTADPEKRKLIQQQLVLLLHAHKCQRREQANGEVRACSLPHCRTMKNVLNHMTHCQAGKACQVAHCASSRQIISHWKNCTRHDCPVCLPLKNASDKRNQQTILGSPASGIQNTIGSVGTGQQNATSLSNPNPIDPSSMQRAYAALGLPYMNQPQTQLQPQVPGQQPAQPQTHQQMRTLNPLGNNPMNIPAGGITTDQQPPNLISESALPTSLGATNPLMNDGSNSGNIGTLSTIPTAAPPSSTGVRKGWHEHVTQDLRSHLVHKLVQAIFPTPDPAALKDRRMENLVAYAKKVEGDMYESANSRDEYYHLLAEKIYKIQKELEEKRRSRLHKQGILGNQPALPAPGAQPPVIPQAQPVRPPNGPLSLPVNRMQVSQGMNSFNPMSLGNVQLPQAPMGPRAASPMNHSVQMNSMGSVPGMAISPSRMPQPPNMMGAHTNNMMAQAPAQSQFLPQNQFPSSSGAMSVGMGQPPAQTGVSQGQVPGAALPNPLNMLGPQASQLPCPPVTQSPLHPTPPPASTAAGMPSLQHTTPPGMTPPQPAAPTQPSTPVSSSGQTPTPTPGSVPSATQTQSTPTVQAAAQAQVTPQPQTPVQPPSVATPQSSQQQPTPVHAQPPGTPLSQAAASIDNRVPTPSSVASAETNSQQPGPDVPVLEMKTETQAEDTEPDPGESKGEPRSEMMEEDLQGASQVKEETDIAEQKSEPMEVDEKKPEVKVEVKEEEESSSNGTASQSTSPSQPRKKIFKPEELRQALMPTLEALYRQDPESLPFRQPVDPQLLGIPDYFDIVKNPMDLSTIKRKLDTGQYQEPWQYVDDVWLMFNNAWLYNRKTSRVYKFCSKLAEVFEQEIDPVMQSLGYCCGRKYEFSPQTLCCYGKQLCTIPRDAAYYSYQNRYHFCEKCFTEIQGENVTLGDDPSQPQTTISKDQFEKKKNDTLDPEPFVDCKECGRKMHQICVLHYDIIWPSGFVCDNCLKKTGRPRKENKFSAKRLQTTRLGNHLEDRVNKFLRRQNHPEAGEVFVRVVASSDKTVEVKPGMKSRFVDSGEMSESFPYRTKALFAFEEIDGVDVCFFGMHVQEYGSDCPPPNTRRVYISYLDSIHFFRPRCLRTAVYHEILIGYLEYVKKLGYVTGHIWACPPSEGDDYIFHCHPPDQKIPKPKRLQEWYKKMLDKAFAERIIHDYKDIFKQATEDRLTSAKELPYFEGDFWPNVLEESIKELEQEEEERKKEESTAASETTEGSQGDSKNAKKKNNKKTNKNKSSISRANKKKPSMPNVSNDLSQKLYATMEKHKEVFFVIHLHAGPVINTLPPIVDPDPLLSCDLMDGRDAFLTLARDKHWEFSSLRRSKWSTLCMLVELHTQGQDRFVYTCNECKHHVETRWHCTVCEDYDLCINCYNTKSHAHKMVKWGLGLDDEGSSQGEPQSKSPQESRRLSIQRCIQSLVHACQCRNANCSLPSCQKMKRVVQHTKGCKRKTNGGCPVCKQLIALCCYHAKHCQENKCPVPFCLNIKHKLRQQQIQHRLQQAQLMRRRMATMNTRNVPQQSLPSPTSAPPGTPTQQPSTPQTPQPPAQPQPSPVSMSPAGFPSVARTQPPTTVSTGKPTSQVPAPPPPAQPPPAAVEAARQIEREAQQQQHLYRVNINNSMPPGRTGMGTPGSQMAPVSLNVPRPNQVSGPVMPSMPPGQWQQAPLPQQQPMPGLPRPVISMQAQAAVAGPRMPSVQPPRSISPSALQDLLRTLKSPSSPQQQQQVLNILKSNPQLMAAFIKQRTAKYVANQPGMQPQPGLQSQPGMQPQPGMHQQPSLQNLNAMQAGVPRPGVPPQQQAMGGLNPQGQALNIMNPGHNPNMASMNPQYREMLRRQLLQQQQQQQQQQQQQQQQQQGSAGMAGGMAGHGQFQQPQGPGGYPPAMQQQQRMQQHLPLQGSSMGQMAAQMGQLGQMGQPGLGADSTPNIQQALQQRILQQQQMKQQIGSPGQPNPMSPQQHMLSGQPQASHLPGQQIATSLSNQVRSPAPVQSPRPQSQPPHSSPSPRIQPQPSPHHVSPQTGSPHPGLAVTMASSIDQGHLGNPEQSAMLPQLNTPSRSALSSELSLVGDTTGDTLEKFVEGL
The species entered for another assay is Homo sapiens. The assay can be described thus: Selectivity ratio of Kd for BRD4 bromodomain 1 (unknown origin) to Kd for partial length human CREBBP expressed in Escherichia coli BL21.
The target of assay [4] is T1, CREB-binding protein. As to the kind of experiment: Competitive binding affinity to partial length human CREBBP expressed in Escherichia coli BL21 after 1 hr by BROMOscan assay.
Target sequence in this assay (Q92793 whole entry): as above
Assay [5] has as its target T1, CREB-binding protein. The assay can be described thus: Binding affinity to CREBBP (unknown origin) by fluorescence polarization assay.
Target sequence in this assay (Q92793 whole entry): as above

In the case of `CCCc1c(C(=O)NCc2c(C)cc(C)[nH]c2=O)[nH]c(C)c1C(C)=O`, the ΔTm on CREB-binding protein [1] was found to be 0.3 °C. Also, the Activity at CREB-binding protein [2] turned out to be 3%.

Take `CC(=O)c1c(C)[nH]c(C(=O)Nc2cc(C(=O)O)ccc2C)c1C`: the ΔTm at CREB-binding protein [1] was 1.4 °C. For the same molecule, the IC50 at CREB-binding protein [3] was greater than 10 µM.

For the molecule `CCOc1ccc(C(C)=O)cc1NC(=O)c1cccc(C(=O)O)c1`, the Ratio in the assay filed under Homo sapiens was greater than 65.

In turn, `COC(=O)c1ccc(C)c(NC(=O)c2[nH]c(C)c(C(C)=O)c2C)c1` had an Activity on CREB-binding protein [2] of 20%.

Regarding `CCn1cnnc1CNC(=O)c1[nH]c(C)c(C(C)=O)c1C`, the ΔTm on CREB-binding protein [1] came to 1.3 °C. At CREB-binding protein [2], this molecule showed an Activity of 5%.

With `CC(=O)c1c(C)[nH]c(C(=O)Nc2cccc(C(=O)O)c2)c1C`, on CREB-binding protein [1], the ΔTm is 2.3 °C. At CREB-binding protein [4], this molecule yielded a Kd of 4.2 µM. In addition, the IC50 on CREB-binding protein [3] worked out at 1.5 µM.

For the molecule `CC(=O)c1c(C)[nH]c(C(=O)Nc2cc(-c3nnco3)ccc2C)c1C`, the ΔTm on CREB-binding protein [1] is 0.3 °C. Besides, the Kd at CREB-binding protein [4] amounted to 13 µM. The IC50 on CREB-binding protein [3] is greater than 100 µM. In addition, at CREB-binding protein [2], the Activity was 9%.

In turn, `CC(=O)NCCCC[C@@H]1NC(=O)[C@H](CCCCN)NC(=O)[C@H](Cc2c[nH]c3ccccc23)NC(=O)[C@@H](NC(C)=O)CSSC[C@@H](C(=O)N[C@@H](Cc2ccccc2)C(=O)N[C@@H](CCCCN)C(N)=O)NC(=O)[C@H](CC(C)C)NC1=O` (HELM PEPTIDE1{[ac].C.W.K.K.L.C.F.K.[am]}|PEPTIDE2{[ac]}$PEPTIDE1,PEPTIDE2,5:R3-1:R2|PEPTIDE1,PEPTIDE1,2:R3-7:R3$$$V2.0) registered an IC50 at CREB-binding protein [5] of 5 µM.

Values taken from ChEMBL document CHEMBL3774343, “Discovery of CREBBP Bromodomain Inhibitors by High-Throughput Docking and Hit Optimization Guided by Molecular Dynamics” (J Med Chem, 2016).
